Experimental data: ChEMBL document CHEMBL6153144, “Conformational Role of Methyl in the Potency of Cyclohexane-Substituted Squaramide CCR6 Antagonists” (J Med Chem, 2025)

What was measured:
[1] = Metabolic stability in human hepatocytes assessed as apparent intrinsic clearance measured per molar; type: ADME, cell-based, Hepatocyte
CYP (isoform not stated) = CYP (isoform not stated) (Homo sapiens, UniProt P04798+P05177+P05181+P08684+P10632+P10635+P11509+P11712+P13584+P20813+P20815+P20853+P24462+P24903+P33260+P33261+P51589+P78329+P98187+Q02928+Q08477+Q16678+Q16696+Q5TCH4+Q6VVX0+Q7Z449+Q8TAV3+Q96SQ9+Q9HB55); experiment: Inhibition of CYP (unknown origin) at 3 uM relative to control; type: ADME, protein assay
[2] = target: Voltage-gated inwardly rectifying potassium channel KCNH2 (Homo sapiens, UniProt Q12809); experiment: Inhibition of hERG; type: toxicity
Chain of Voltage-gated inwardly rectifying potassium channel KCNH2 (Q12809 whole entry): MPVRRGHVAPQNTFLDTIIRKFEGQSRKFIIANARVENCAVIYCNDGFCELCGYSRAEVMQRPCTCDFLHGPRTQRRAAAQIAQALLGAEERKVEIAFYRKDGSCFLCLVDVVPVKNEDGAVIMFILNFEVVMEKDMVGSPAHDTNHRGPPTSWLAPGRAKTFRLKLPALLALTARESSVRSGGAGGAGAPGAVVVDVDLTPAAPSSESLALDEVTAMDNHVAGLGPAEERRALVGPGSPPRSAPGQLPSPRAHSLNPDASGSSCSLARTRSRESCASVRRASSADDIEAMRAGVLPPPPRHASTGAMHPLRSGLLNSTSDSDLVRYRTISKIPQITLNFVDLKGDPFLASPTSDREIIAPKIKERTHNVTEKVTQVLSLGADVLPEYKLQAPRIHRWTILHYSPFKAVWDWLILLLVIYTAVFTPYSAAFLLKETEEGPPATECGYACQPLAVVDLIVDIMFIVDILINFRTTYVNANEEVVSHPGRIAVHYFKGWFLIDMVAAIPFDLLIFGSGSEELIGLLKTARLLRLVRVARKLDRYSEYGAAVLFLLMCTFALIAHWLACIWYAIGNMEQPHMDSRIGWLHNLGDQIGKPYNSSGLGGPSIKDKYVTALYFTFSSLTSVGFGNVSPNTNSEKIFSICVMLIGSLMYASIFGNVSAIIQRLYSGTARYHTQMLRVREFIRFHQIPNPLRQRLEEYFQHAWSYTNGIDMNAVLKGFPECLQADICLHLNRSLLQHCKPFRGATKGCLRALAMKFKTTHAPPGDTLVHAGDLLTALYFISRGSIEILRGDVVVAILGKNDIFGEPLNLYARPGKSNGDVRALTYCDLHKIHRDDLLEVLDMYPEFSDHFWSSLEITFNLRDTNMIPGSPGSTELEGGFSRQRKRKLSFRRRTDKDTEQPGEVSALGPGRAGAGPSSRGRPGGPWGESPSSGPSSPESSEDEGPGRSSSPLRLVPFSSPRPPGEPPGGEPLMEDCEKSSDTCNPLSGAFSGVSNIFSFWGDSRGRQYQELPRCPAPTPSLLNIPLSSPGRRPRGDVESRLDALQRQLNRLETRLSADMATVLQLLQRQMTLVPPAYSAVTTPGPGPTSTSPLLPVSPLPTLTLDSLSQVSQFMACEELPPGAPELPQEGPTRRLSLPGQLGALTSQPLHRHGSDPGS

[3] = Lipophilicity, logD of compound by shake flask method; type: physicochemical; details: octanol/water

CL(app) [1] | SMILES | further results
4.7 µL/min | C[C@@H]1CCCC[C@@H]1Nc1c(Nc2ccnc(C(=O)N(C)C)c2O)c(=O)c1=O | –
3.4 µL/min | C[C@H]1OCCC[C@@]1(C)Nc1c(Nc2ccnc(C(=O)N(C)C)c2O)c(=O)c1=O | –
8.3 µL/min | C[C@H]1CCCC[C@@]1(C)Nc1c(Nc2ccnc(C(=O)N(C)C)c2O)c(=O)c1=O | –
6.8 µL/min | C[C@H]1CCCC[C@H]1Nc1c(Nc2ccnc(C(=O)N(C)C)c2O)c(=O)c1=O | –
6.9 µL/min | C[C@@H]1CCC[C@H](C)[C@@H]1Nc1c(Nc2ccnc(C(=O)N(C)C)c2O)c(=O)c1=O | –
9.9 µL/min | C[C@@H]1CCCC[C@]1(C)Nc1c(Nc2ccnc(C(=O)N(C)C)c2O)c(=O)c1=O | –
2.9 µL/min | C[C@@H]1OCCC[C@]1(C)Nc1c(Nc2ccnc(C(=O)N(C)C)c2O)c(=O)c1=O | inhibition at 3 µM (CYP (isoform not stated)): < 5%; IC50 [2]: > 100 µM
– | CN(C)C(=O)c1nccc(Nc2c(NC3CCCCC3)c(=O)c2=O)c1O | logD [3]: 0.86
